Results as given in ChEMBL document CHEMBL1201862, “PubChem BioAssay data set” (2004).
The source made the active and inactive calls.

Columns and labels:
[1] = target: Voltage-dependent T-type calcium channel subunit alpha-1H (Homo sapiens, UniProt O95180); type: functional;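 further: channel activity triggered by adding a high calcium stimulation buffer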
Beta-galactosidase = Beta-galactosidase (Escherichia coli, UniProt Q8VNN2); assay: PubChem AID 485352; type: functional
[2] = target: T1, Type-1 angiotensin II receptor (Homo sapiens, UniProt P30556); assay: antagonism of angiotensin II type 1 receptor – cell-based, uHTS hits, selectivity assay for APJ receptor antagonist project, dose response (AID 463214); type: functional;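 further: antagonist potency against angiotensin II stimulated AT1 response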
T1 sequence (P30556 whole entry): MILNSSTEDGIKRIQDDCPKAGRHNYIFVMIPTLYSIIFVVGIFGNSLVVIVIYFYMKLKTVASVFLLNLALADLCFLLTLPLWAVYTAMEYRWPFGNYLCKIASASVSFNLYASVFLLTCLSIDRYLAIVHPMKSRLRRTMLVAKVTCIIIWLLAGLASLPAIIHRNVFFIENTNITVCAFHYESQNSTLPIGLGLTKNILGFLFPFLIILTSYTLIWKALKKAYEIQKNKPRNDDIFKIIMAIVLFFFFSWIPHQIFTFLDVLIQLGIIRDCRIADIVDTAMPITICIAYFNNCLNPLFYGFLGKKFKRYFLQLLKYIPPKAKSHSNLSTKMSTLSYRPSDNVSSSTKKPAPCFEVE

Prothrombin = Prothrombin (Bos taurus, UniProt P00735); assay: thrombin protease inhibitors – biochemical, fluorescence polarization, uHTS hits, dose response (AID 602369); type: functional
[3] = target: 72 kDa type IV collagenase (Homo sapiens, UniProt P08253); assay: Dose Response validation of uHTS RPN11 inhibitor hits using a MMP-2 Fluorescence assay.; type: functional
Chain of 72 kDa type IV collagenase (P08253 whole entry): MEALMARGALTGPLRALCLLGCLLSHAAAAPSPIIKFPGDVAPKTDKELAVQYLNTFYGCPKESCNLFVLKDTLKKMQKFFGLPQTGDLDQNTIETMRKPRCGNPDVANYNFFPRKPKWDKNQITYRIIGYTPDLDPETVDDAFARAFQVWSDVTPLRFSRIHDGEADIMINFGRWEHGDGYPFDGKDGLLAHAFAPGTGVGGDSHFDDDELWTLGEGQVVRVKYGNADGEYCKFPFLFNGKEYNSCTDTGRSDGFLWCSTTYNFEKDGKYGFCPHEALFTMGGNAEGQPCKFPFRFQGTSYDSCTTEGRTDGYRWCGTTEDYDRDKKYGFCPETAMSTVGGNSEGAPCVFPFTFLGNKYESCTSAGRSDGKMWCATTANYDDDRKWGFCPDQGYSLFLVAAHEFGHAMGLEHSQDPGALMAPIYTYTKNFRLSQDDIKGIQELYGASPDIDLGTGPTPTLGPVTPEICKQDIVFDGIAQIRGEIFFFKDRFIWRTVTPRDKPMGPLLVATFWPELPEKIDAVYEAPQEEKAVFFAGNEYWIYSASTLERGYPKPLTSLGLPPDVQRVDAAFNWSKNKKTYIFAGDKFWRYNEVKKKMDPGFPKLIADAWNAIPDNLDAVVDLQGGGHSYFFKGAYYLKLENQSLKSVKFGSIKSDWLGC

[4] = target: 26S proteasome non-ATPase regulatory subunit 14 (Homo sapiens, UniProt O00487); assay: inhibition of proteasome subunit RPN11 – biochemical, fluorescence polarization, uHTS hits, confirmation (AID 602368); type: functional
Chain of 26S proteasome non-ATPase regulatory subunit 14 (O00487 whole entry): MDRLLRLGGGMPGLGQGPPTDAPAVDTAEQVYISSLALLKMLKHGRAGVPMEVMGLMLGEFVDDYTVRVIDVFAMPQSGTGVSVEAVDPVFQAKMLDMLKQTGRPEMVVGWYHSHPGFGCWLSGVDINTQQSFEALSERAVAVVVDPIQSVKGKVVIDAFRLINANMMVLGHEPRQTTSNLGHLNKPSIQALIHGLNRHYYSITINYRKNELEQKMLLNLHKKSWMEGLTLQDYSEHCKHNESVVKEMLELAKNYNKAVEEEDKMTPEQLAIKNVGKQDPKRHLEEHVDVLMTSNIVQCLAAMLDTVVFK

[5] = target: FAD-linked sulfhydryl oxidase ALR (Homo sapiens, UniProt P55789); assay: ALR-catalysed DTT oxidation blockers – biochemical, H2O2 detection, luminescence, cherry-pick, dose response (AID 493248)
Chain of FAD-linked sulfhydryl oxidase ALR (P55789 whole entry): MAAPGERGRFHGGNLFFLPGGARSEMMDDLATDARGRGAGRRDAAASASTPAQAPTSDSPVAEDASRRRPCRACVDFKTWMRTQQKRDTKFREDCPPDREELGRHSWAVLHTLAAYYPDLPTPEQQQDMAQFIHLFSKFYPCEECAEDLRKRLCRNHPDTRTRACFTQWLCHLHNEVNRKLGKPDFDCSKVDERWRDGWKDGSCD

[6] = A cytotoxicity screen of small molecule inhibitors of the PhoP region in Salmonella typhi identified in the primary screen. [Related pubchem assays: 1850, 1864, 1985 ]; type: functional
Cytochrome P450 3A4 = Cytochrome P450 3A4 (Homo sapiens, UniProt P08684); conditions: Potency;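 further: confirmatory qHTS run detecting inhibitors and substrates of CYP3A4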
Chain of Cytochrome P450 3A4 (P08684 whole entry): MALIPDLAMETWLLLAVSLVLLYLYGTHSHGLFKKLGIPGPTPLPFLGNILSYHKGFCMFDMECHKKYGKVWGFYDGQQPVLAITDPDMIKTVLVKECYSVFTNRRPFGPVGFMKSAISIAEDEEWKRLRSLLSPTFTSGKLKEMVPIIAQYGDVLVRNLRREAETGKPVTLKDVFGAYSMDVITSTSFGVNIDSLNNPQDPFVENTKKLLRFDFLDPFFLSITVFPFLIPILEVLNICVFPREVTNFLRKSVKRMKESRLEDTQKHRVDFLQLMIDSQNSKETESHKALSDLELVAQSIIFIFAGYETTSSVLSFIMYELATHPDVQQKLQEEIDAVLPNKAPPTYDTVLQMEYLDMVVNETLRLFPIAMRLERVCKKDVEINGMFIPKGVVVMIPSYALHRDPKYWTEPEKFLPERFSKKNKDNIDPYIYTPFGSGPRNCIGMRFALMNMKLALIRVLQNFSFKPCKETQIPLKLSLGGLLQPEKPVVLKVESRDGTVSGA

[7] = target: T2, Endoribonuclease toxin MazF (Escherichia coli K-12, UniProt P0AE70); assay: substrate-only fluorescence increase artefacts – biochemical, single-stranded RNase substrate, counter-screen for MazEF activator project, dose response (AID 588502); type: functional
T2 sequence (P0AE70 whole entry): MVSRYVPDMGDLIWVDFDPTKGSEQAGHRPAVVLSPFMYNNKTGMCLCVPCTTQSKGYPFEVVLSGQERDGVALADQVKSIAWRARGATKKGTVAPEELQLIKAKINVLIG

[8] = target: T3, Zinc finger protein mex-5 (Caenorhabditis elegans, UniProt Q9XUB2); assay: potency of MEX-5 RNA-binding blockers – biochemical, C. elegans, fluorescence polarization, dose response (AID 1960)
T3 sequence (Q9XUB2 whole entry): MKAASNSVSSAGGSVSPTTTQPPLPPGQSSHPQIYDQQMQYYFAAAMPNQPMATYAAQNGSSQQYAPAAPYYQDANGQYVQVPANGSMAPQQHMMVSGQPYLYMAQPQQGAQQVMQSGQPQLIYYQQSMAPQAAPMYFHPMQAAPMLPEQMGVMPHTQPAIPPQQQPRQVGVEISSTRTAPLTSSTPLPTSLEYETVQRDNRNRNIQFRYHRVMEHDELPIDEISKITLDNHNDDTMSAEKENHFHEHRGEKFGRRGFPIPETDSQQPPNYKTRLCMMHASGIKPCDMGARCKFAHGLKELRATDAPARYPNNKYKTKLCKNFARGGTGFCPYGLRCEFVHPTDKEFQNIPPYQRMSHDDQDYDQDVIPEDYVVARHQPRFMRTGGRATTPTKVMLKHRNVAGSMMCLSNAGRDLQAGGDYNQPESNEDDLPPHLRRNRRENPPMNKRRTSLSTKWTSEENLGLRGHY

[9] = target: T4, RNA-binding protein pos-1 (Caenorhabditis elegans, UniProt G5EF15); assay: disruptors of C. elegans POS-1 RNA interaction – biochemical, fluorescence polarization, dose response (AID 1964);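 further: purified POS-1 fused to maltose binding protein made in E. coli; potency of compounds blocking POS-1 binding to fluorescent RNA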
T4 sequence (G5EF15 whole entry): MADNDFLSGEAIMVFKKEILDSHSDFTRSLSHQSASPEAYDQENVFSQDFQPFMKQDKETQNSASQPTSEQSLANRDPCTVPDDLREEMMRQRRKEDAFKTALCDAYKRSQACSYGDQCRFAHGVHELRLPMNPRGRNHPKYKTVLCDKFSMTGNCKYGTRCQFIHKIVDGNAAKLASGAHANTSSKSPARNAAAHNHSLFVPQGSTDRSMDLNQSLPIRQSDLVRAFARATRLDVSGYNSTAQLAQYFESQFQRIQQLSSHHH

[10] = target: T2, Endoribonuclease toxin MazF; assay: activation of MazEF endoribonuclease cleavage – biochemical, fluorescence, single-stranded RNA substrate, uHTS hits, dose response (AID 588481); type: functional
Vero = assay: viability of Vero cells under compound – cytotoxicity control for flavivirus capping enzyme inhibitors (AID 588742); type: functional; conditions: Chlorocebus sabaeus
H9c2 = assay: cells; type: functional, cell-based; conditions: Rattus norvegicus, H9c2, Myocardium;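 further: confirmatory concentration-response retest of ultra-high-throughput screening hits for modulation of myocardial damage; cell death induced by hydrogen peroxide oxidative stress; compound pretreatment for 60 min then peroxide exposure for 2 h; potency is for protecting the cells against peroxide damage rather than for killing them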
[11] = blockers of HIV-1 envelope-mediated cell-cell fusion – cherry-pick, dose response (AID 652057); type: functional, cell-based
[12] = HIV-1 AD8 envelope cell-cell fusion blockers – cherry-pick, dose response (AID 652062); type: functional, cell-based;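 further: luciferase signal from cell-cell fusion driven by HIV-1 clade B AD8 Env; potency is for inhibitors of fusion seen as a drop in luminescence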
[13] = target: T5, Polyadenylate-binding protein 1 (Homo sapiens, UniProt P11940); assay: MLLE domain peptide-binding blockers, IC50 – biochemical, fluorescence polarization, FITC-PAM2 peptide, dose response (AID 602259); type: functional; conditions: read-out: IC50_Mean
T5 sequence (P11940 whole entry, the tested form may be a part): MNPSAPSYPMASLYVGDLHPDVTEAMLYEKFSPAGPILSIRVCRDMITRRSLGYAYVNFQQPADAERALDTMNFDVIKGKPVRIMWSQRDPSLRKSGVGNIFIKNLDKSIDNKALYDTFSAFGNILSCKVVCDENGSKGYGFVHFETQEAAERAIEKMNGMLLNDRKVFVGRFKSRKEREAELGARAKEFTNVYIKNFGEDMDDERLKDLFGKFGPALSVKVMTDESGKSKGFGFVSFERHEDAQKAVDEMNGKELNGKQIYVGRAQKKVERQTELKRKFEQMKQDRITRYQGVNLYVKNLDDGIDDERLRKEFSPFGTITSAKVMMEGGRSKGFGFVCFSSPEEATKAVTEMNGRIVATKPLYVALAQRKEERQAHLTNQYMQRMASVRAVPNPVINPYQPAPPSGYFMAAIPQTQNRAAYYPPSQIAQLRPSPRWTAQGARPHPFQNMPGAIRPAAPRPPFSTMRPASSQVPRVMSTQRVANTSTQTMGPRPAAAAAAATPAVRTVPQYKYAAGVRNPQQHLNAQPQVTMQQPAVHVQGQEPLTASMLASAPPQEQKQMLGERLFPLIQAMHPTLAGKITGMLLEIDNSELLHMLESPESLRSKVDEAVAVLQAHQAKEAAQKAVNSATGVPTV

[14] = target: T5, Polyadenylate-binding protein 1; assay: MLLE binding blockers, Cy5 peptide tracer – biochemical, fluorescence polarization, Cy5-PAM2 peptide, secondary, miRNA deadenylation inhibitor project, dose response (AID 602260); type: functional; conditions: read-out: IC50_Mean
P388/ADR = assay: cells; type: functional; conditions: Mus musculus
P388 = assay: cells; type: functional; conditions: Mus musculus
SN12K1 = assay: cells; type: functional; conditions: Homo sapiens
[15] = test system: Streptococcus sp. 'group A'; assay: Streptococcus pyogenes SK(-)GAS viability under kanamycin – luminescence, BacTiterGlo, confirmation, counter-screen for streptokinase expression inhibitor project, dose response (AID 1900); type: functional, organism-based
Streptococcus = assay: GAS UMAA2166 growth inhibition – luminescence, BacTiterGlo, counter-screen for streptokinase expression inhibitor project, dose response (AID 1915); type: functional, organism-based;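 further: potency for reduction of bacterial viability or growth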

Chain of Voltage-dependent T-type calcium channel subunit alpha-1H (O95180 whole entry): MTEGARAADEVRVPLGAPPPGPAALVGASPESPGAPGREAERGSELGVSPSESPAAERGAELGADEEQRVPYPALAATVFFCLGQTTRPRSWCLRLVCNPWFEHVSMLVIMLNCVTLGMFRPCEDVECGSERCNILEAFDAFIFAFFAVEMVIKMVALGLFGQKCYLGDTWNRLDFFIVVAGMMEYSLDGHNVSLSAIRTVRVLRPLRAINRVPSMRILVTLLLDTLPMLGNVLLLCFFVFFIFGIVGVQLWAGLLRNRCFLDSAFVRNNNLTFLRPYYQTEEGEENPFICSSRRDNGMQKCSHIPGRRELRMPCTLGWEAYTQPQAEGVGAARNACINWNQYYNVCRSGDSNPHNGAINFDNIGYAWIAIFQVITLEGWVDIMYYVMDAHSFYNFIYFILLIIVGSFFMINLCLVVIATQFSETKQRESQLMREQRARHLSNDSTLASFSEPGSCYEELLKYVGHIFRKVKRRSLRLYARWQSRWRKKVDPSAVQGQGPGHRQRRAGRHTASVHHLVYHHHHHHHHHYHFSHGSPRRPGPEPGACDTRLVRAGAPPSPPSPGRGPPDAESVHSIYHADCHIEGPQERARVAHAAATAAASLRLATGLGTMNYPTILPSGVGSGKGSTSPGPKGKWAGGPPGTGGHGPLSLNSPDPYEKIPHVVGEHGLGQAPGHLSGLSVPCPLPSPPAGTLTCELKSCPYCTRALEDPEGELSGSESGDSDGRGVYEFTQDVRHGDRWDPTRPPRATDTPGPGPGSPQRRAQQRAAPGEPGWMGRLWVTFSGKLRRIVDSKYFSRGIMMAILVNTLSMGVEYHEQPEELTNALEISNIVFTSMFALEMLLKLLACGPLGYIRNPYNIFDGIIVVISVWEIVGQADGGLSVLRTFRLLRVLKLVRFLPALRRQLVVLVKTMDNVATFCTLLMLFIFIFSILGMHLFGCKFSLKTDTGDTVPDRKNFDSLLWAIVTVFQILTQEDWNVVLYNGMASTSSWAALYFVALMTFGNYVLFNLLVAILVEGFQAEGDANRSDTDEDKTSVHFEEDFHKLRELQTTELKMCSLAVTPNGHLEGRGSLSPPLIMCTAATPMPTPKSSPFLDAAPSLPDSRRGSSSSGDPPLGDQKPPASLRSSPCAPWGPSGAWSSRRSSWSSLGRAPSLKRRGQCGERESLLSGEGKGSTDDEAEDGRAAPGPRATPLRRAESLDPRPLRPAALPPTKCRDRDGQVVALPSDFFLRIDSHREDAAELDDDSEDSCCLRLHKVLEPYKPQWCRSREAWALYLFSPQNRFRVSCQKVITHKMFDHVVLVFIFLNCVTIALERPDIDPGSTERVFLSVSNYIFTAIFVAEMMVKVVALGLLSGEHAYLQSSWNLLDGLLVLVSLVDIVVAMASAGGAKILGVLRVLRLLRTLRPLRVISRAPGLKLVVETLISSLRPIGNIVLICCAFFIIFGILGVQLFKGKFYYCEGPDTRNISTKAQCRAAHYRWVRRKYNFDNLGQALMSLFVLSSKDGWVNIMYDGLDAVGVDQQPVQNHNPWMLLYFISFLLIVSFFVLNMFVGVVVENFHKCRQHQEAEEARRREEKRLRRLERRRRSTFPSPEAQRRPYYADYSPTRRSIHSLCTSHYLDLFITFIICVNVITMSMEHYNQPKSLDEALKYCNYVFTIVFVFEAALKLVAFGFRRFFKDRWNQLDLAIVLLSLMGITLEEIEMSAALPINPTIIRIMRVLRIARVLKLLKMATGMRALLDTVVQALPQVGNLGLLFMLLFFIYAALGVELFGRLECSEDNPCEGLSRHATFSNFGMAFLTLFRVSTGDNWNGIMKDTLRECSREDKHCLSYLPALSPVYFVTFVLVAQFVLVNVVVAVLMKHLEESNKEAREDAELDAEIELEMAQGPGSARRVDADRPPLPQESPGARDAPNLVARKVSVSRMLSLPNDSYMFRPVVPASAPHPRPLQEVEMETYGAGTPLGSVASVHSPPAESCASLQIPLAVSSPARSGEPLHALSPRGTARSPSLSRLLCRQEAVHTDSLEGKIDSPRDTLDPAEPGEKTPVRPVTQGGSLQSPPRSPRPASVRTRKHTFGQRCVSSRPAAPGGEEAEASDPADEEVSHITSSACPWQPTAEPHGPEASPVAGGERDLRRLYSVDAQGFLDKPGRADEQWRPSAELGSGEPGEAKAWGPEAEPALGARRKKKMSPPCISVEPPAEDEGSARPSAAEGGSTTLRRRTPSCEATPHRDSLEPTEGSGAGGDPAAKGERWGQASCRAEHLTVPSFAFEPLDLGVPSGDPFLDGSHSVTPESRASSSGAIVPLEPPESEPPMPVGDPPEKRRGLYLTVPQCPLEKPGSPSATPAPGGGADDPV

CC(Oc1ccccc1)c1ccnn1S(=O)(=O)c1ccccc1 (centres undefined)
EC50 [1]: 50.8 µM (active)

CCn1c(CNc2ccccc2Cl)nnc1SCC(=O)OC1CCCCC1
EC50 [1]: 3.84 µM (active)

CC1=NN(c2ccc(C)cc2)C(=O)/C1=C/c1ccc(-c2cc([N+](=O)[O-])ccc2O)o1
EC50 (Beta-galactosidase): > 40 µM (inactive) | IC50 [2]: > 40 µM (not active)

COc1cccc(/N=C2\NC(=O)/C(=C/c3cc([N+](=O)[O-])ccc3O)S2)c1
EC50 (Beta-galactosidase): > 40 µM (inactive) | IC50 [2]: > 40 µM (not active)

O=C(COC(=O)c1ccco1)c1ccc(S(=O)(=O)N2CCCCC2)cc1
EC50 (Beta-galactosidase): > 40 µM (inactive) | IC50 [2]: 16.5 µM (active)

COCCNC(=O)c1c(NC(=O)c2nc(SC)ncc2Cl)sc2c1CCCC2
IC50 (Prothrombin): 50 µM (active) | IC50 [3]: > 100 µM (inactive) | IC50 [4]: 17.6 µM (active)

Cc1nn(CCC(=O)NN=C(S)Nc2ccc(F)cc2)c(C)c1Br
EC50 (Beta-galactosidase): > 40 µM (inactive) | IC50 [2]: > 40 µM (not active)

Cc1cc(NS(=O)(=O)c2ccc(NC(=O)Nc3cccc(Cl)c3)cc2)no1
AC50 [5]: 0.098 µM (active) | EC50 [6]: > 50 µM (active)

Cc1ccc(S(=O)(=O)NC2CCCCC2)cc1
AC50 (Cytochrome P450 3A4): 20 µM (inconclusive)

Cc1cc(NC(=O)/C(C#N)=C/c2ccc(-c3ccc(SC(F)F)cc3)o2)n(-c2ccccc2)n1
EC50 [7]: 48.9 µM (inactive) | EC50 [8]: 25.8 µM (active) | EC50 [9]: 22.9 µM (active) | EC50 [10]: > 99 µM (inactive)

O=C(CSc1nnc(-c2ccccc2)n1Cc1ccco1)NCc1ccc2c(c1)OCO2
EC50 [1]: 12.1 µM (active)

CNC(=O)/C(C#N)=C/c1c(N(Cc2ccccc2)Cc2ccccc2)nc2ccccn2c1=O
CC50 (Vero): > 40 µM (active) | IC50 (H9c2): > 79 µM (inactive)

COc1ccccc1C(=O)Nc1ccc(NC(=O)c2ccco2)c(C)c1
EC50 [1]: 6.29 µM (active)

COc1ccc(N(C(=O)c2cccnc2)S(=O)(=O)c2ccc(F)cc2)cc1
EC50 [6]: > 50 µM (active)

Clc1ccc(C2[C@H]3CN(Cc4ccc(-c5ccccc5)cc4)[C@H](c4ccccc4)C34CC2(c2ccccc2)C4)cn1 (some centres undefined)
AC50 (Cytochrome P450 3A4): 15.8 µM (inconclusive)

O=c1oc2ccccc2cc1-c1nc(-c2cccs2)cs1
EC50 [7]: > 99 µM (inactive) | EC50 [8]: 5.43 µM (active) | EC50 [9]: 15.6 µM (inconclusive) | EC50 [10]: > 99 µM (inactive)

O=C(CSc1nc2ccccc2o1)Nc1nc2c(s1)CCCC2
IC50 (Prothrombin): 24 µM (active) | IC50 [3]: > 100 µM (inactive) | IC50 [4]: 30.6 µM (active)

COc1ccc(C)cc1NC(=O)C1CCN(S(=O)(=O)c2c(C)noc2C)CC1
EC50 [6]: > 50 µM (active)

NS(=O)(=O)c1ccc(CNC(=O)COc2ccc3c4c(c(=O)oc3c2)CCCC4)cc1
EC50 [7]: > 99 µM (inactive) | EC50 [10]: > 99 µM (inactive)

C#CCN1C(=O)S/C(=C\c2ccc(N3CCOCC3)cc2C)C1=O
EC50 [7]: > 99 µM (inactive) | EC50 [10]: > 99 µM (inactive)

CC(c1nc(O)c2ccccc2n1)N(C)CCOc1ccc(Cl)cc1 (centres undefined)
AC50 [11]: 57.3 µM (active) | AC50 [12]: 28.3 µM (active)

CCN(CC)CCOC(=O)c1ccc(NC=C2C(=O)NC(=O)NC2=O)cc1
IC50 (Prothrombin): 32.4 µM (active) | IC50 [3]: > 100 µM (inactive) | IC50 [4]: 22.4 µM (active)

CC(=O)OCC1OC(C#CCC2CCCCC2)C=CC1OC(C)=O (centres undefined)
AC50 (Cytochrome P450 3A4): 3.16 µM (inconclusive)

Cc1cccc2c1N(CCCOc1ccccc1)C(=O)C2=O
EC50 (Beta-galactosidase): > 40 µM (inactive) | IC50 [2]: > 40 µM (not active)

O=[N+]([O-])c1cc(C(F)(F)F)ccc1NCC1CCCO1 (centres undefined)
EC50 [7]: > 99 µM (inactive) | EC50 [10]: > 99 µM (inactive)

CSc1nc2oc3c(c2c2nncn12)CC(C)(C)SC3
IC50 [13]: > 66 µM (inactive) | IC50 [14]: > 66 µM (inactive)

COc1ccc(N(C(=O)Cn2cnc3ccccc32)C(C(=O)NC2CCCCC2)c2ccccc2)cc1 (centres undefined)
EC50 [1]: 4.82 µM (active)

C/C(=N\NC(=S)Nc1cccc(C)c1)c1ccccc1
EC50 (Beta-galactosidase): > 40 µM (inactive) | IC50 [13]: > 66 µM (inactive) | IC50 [2]: > 40 µM (not active) | IC50 [14]: > 66 µM (inactive)

Cn1cc(/C=N\O)nc2c(=O)n(-c3ccccc3)c(=O)nc1-2
IC50 [13]: > 66 µM (inactive) | IC50 [14]: > 66 µM (inactive)

O=C(/C=C/c1ccc(Cl)cc1)c1cccs1
AC50 (Cytochrome P450 3A4): 25.1 µM (inconclusive)

Clc1ccc2c(NCc3ccccn3)ccnc2c1
EC50 [6]: > 50 µM (active)

CCC1(c2ccc(N)cc2)CCC(=O)NC1=O (centres undefined) [AMINOGLUTETHIMIDE]
GI50 (P388/ADR): 1610 µM (inactive) | GI50 (P388): 2390 µM (inactive) | AC50 (Cytochrome P450 3A4): 31.6 µM (inconclusive) | GI50 (SN12K1): 1690 µM (inactive)

O=C(O)c1cc(O)c2c(c1)C(=O)c1cc(O)cc(O)c1C2=O [EMODIC ACID]
AC50 (Cytochrome P450 3A4): 15.8 µM (inconclusive)

CC(C)=CCc1c2c(c3occ(-c4ccc(O)cc4)c(=O)c3c1O)C=CC(C)(C)O2 [OSAJIN]
EC50 [15]: 1.11 µM (active) | AC50 (Cytochrome P450 3A4): 25.1 µM (inconclusive) | EC50 (Streptococcus): 1.47 µM (active)

COc1cc(C(=S)N2CCOCC2)ccc1O [VANITIOLIDE]
IC50 [13]: > 66 µM (inactive) | IC50 [14]: > 66 µM (inactive)
